≈ marks a conversion by molar mass, not a printed value.
Assays:
GBS DK23 = assay: MBC determination; format: cell-based, group B Streptococcus; settings: Streptococcus, 3-log reduction, 24 hour, 37° C., half strength MHB in PBS
Experimental: (§1) To determine MBC, bacteria were cultured in TSB (Staphylococcus), THB (Streptococcus) or Nutrient broth (P. aeruginosa and E. coli) by reaching exponential phase (OD600=0.5-0.8). […] After incubation, the number of viable bacteria was measured by counting CFU after spreading 10-fold serial dilutions of bacteria on suitable agar plates. MBC was determined as a 3-log reduction (99.9%) of viable bacteria after 24 hour incubation.
(§2) Antimicrobial activity of 6-HAP in vitro. To examine the specificity of 6-HAP for various bacteria, minimal bactericidal concentrations (MBCs) were determined according to dose-dependent killing curves at 24 hrs of incubation in vitro (Table 1). 6-HAP killed or suppressed growth of several major skin pathogens including GAS (NZ131), group B Streptococcus (GBS) (DK23), methicillin-sensitive S. aureus (ATCC35556), methicillin-resistant S. aureus (MRSA) strains (USA300 and Sanger252), Pseudomonas aeruginosa (P. aeruginosa) (ATCC14213) in vitro. […] S. epidermidis (ATCC12228) was also resistant to 6-HAP.

MRSA Sanger252 = assay: MBC determination; format: cell-based, methicillin-resistant S. aureus; settings: Staphylococcus aureus, 3-log reduction, 24 hour, 37° C., half strength MHB in PBS
Experimental: as §1, §2

MRSA USA300 = assay: MBC determination; format: cell-based, methicillin-resistant S. aureus; settings: Staphylococcus aureus, 3-log reduction, 24 hour, 37° C., half strength MHB in PBS
Experimental: as §1, §2

M. luteus ATCC4698 = assay: MBC determination; format: cell-based; settings: Micrococcus luteus, 3-log reduction, 24 hour, 37° C., half strength MHB in PBS
GAS [1] = assay: Time course killing of GAS; format: cell-based, group A Streptococcus; settings: THB; 6-HAP 25 μg/mL, mitomycin C 5 μg/mL, LL-37 10 μM
Experimental: (§3) (a) Time course killing of GAS in THB containing 6-HAP (25 μg/mL), mitomycin C (5 μg/mL), or LL-37 (10 μM). At each indicated time point, live GAS in the media was measured by counting CFU on an agar plate. The data represent mean±SE of four individual experiments. (b) Membrane permeability of GAS incubated in THB containing 6-HAP (25 μg/mL), mitomycin C (5 μg/mL) and LL-37 (10 μM) for 1 hr. The bacteria with compromised plasma membranes (Red) can be distinguished from those with intact membranes (Green). (c) BrdU incorporation into nascent DNA of GAS after incubation with 6-HAP (25 μg/mL) or mitomycin C (5 μg/mL) in THB containing BrdU (10 μM) for 30 or 60 min. (d) BrdU incorporation into nascent DNA of S. epidermidis ATCC12228 after incubation with 6-HAP (25 μg/mL) or mitomycin C (5 μg/mL) in THB containing BrdU (10 μM) for 60 min. The data represent mean±SE of five individual experiments (*P<0.05 and **P<0.01 by Student's t-test vs vehicle control). (e-f) Capacity of 6-HAP to block in vitro DNA extension by Klenow fragment polymerase. Extension reaction was carried out with IRDye800-labeled 18-nt primer (SEQ ID NO:57) and 25-nt template which required adenosine (X=T) or cytidine (X=G) at the initial base for extension (SEQ ID NO:58) (e). Extension reaction was analyzed on a 20% acrylamide gel by electrophoresis (f). […] GAS survival was measured by counting CFU. […]

GAS [2] = assay: Antimicrobial activity against GAS in the presence of adenine; format: cell-based, group A Streptococcus; settings: 20 hrs, CFU
Experimental: as §3, with “(e-f) Capacity of 6-HAP to block in vitro DNA extension by Klenow fragment polymerase. Extension reaction was carried out with IRDye800-labeled 18-nt primer (SEQ ID NO:57) and 25-nt template which required adenosine (X=T) or cytidine (X=G) at the initial base for extension (SEQ ID NO:58) (e).” left out
We next assessed the effect of 6-HAP on DNA synthesis. […] To directly examine the action of 6-HAP on DNA extension in a cell free system, 25-bp templates and matching 18-bp fluorescence primers were designed to measure DNA extension in vitro by Klenow (exo) DNA polymerase (FIG. 4e).

GAS [3] = assay: Subcutaneous GAS deep skin infection in mice; format: in vivo, C57BL6 mouse; settings: single intravenous injection 20 mg/kg after GAS inoculation
Experimental: (a-c) Effect of a single intravascular injection of 6-HAP on skin infection by GAS. The size of the infected lesion was measured by Image-J software (a). Representative images of infected skin (arrow) of mouse treated with 6-HAP or vehicle at Day-1 and Day-3 post infection are shown in (b). Infected skin was removed 24 and 72 hrs after bacterial injection and homogenized in PBS (c). CFUs were enumerated by plating serial dilutions of the homogenate on an agar plate. The data represent mean±SE of eight individual experiments (*P<0.05 and **P<0.01 by Student's t-test vs vehicle control). (d-e) Effect of repeated intravascular administrations with 6-HAP on growth of melanoma in mice. The data represent mean±SE of 10 individual experiments (*P<0.05, **P<0.01 and ***P<0.001 by Student's t-test vs vehicle control) (d). Representative images of tumor (broken line) in mouse treated with 6-HAP or vehicle at Day-9 and Day-13 are shown in (e).
For subcutaneous infection, mouse dorsal skin was subcutaneously injected with GAS (1×10^7 CFU/50 μL in PBS) by 31 G needle. […] Wound development was monitored everyday by taking photographs along with a wound ruler and lesion size was measured with ImageJ ([http://]rsbweb.nih.gov/ij/)(hyperlink disabled by brackets). […]

ONc1ncnc2nc[nH]c12 [6-HAP, 6-N-hydroxyaminopurine]
MBC (GBS DK23): 0.781 µg/mL (≈ 5.17 µM)
MBC (MRSA Sanger252): 0.781 µg/mL (≈ 5.17 µM)
MBC (MRSA USA300): 6.25 µg/mL (≈ 41.4 µM)
MBC (M. luteus ATCC4698): 12.5 µg/mL (≈ 82.7 µM)
kinetics of killing, growth of GAS over time (GAS [1]): at a rate similar to mitomycin C but slower than LL37
antimicrobial activity against GAS on addition of excessive adenine (GAS [2]): partially decreased
GAS survival in infected skin (GAS [3]): significantly suppressed
clinical lesion size (GAS [3]): significantly suppressed

— US12427151B2, “Compositions and method of treating cancer” (The Regents of the University of California, priority 2017, dated 2025)
